In paper PMC8154525 (Journal of the American Chemical Society, 2021):

Test system: aminopeptidase M (Ap)
Test: Ap-catalyzed cleavage of H-Arg-AMC
Format: biochemical
Conditions: read-out: KM (Ap-catalyzed cleavage); substrate of aminopeptidase M

Km: 5 mM
Structure (SMILES): Cc1cc(=O)oc2cc(NC(=O)[C@@H](N)CCCN=C(N)N)ccc12 [H-Arg-AMC]
